The text below walks through data of patent publication US20220296573A1, “NOVEL COMPOUNDS AND PHARMACEUTICAL COMPOSITIONS THEREOF FOR THE TREATMENT OF INFLAMMATORY DISORDERS” (Galapagos NV, priority 2019, published 2022).

The test system of one series is Mouse Hepatocyte. The experiment in a line: Metabolic stability in mouse hepatocytes. The format is in vitro ADME. The following applies: mouse cryopreserved hepatocytes, 1 μM. As for the experimental part:
(§1) The aim of this assay is to determine the metabolic stability of the compound in hepatocytes (cryopreserved) of different species. Low hepatocyte stability may result in the formation of unwanted metabolites, high clearance, and therefore is not desirable.
(§2) A 10 mM stock solution of test compound in DMSO was first diluted in DMSO to 3 mM, and then in modified Krebs-Henseleit buffer (Sigma, K3753) to 5 μM. This compound dilution was added to a suspension of pooled cryopreserved hepatocytes (BioreclamationIVT) at 37° C. under gentle shaking.
(§3) Final reaction conditions were: 1 μM of test compound, 0.03% DMSO, 0.5 million viable hepatocytes/mL, and 75 μL incubation volume.
(§4) Testosterone (1 μM) and 7-hydroxycoumarin (1 μM) were used, respectively as phase I and phase II metabolic reaction controls.
(§5) After 0, 10, 20, 45, 90, 120 and 180 min of incubation, the reaction was terminated with 225 μL of MeCN:MeOH (2:1) containing 100 ng/mL of diclofenac as analytical internal standard. Samples were mixed, centrifuged and the supernatant analyzed by LC-MS/MS.
(§6) The instrument responses (ratios of test compound and internal standard peak areas) were referenced to the zero time point samples (considered as 100%) in order to determine the percentage of compound remaining.
(§7) Plots of percentage compound remaining were used to determine the intrinsic clearance in the hepatocyte incubations using the following equations:
(§8) Scaled Clint [L/h/kg]=Clint [μL/min/10^6 cells]*#(10) cells/g liver*60*(1/10^6) Scaled Clint unbound [L/h/kg]=Clint [L/h/kg]/Fu,inc where: fu,inc equals hepatocyte binding, derived from microsomal binding (fu,mic) by following equation: […]

A further series can be described thus: Thermodynamic solubility. The format is physicochemical. To be noted: for solubility thermodynamic at 24 h: 37 °C, thermodynamic from solid. As to the method:
In a 8 mL glass vial, 1-2 mg of dry matter of compound were added and stirred with the suitable buffers (Fed State Simulated Intestine Fluid, FeSSIF, or Fasted State Simulated Intestine Fluid, FaSSIF, or Fasted State Simulated Gastric Fluid, FaSSGF, or phosphate buffer pH 7.4) for 24 h at r.t. (for the buffer pH 7.4) or 37° C. (for the GI fluids). The concentration of the mixture was 1 mg/mL.
A volume of 1000 μL were sampled, centrifuged for 10 min at 10 000 rpm and 500 μL of the supernatant were filtered on captiva plate. The samples are diluted in duplicates in DMSO (F100 and F10). Then, a final dilution (F100) in 80/20 H2O/MeCN containing the internal standard (warfarin) was used for LCMS-MS analysis.
A standard curve was made starting from a 40,000 ng/mL stock in DMSO, freshly prepared from dry matter. Then, successive concentrations at 15,000, 11,000, 6,000, 2,500, 1,000, 375, 150 and 75 ng/mL in DMSO were prepared.
Three quality control samples were made: one of 10,000, 1,500 and 200 ng/mL in DMSO, also starting from the DMSO working stock solution at 40,000 ng/mL.
The standard curve and quality controls were diluted a F100 in 80/20 H2O/MeCN (with internal standard) and analyzed on LC/MS-MS (API4000 or API5500).
The samples were analyzed on LC-MS with a flow rate of 0.6 mL/min. The mobile phase A was 0.1% formic acid in water and the mobile phase B was 0.1% formic acid in 90% MeCN and 10% of water. The sample was run under positive or negative ion spray on Pursuit C18—5 μm (2.0×20 mm) column, from Agilent.
The ratio analyte/internal standard peaks areas of the standard curve were plotted in a graph and a linear or polynomial of the second order equation was used to calculate the unknown concentrations of the test compound.
Solubility values were reported in μM and g/mL.

Series [1] relates to CL097 triggered TNFα release in human whole blood. The experiment in a line: Ex vivo human TNFα release inhibition (whole blood assay). The format is cell-based. The following applies: CL097 2 μg/mL, 3 h 30 min. From the text: The aim of the assay is to evaluate the activity of compounds of the invention on the activated TLR/IRAK-4 pathway in an ex vivo human whole blood setting. Toll-like receptors (TLRs) are pattern recognition receptors that recognize a wide variety of microbial molecules, called pathogen-associated molecular patterns (PAMPs). Human TLR7 and TLR8 recognize imidazoquinoline compounds (e.g., CL097—CAS n #1026249-18-2) and single stranded RNAs as their natural ligands. Activation of TLRs leads to the production of several cytokines (e.g., IFNα, TNFα, IL-8, IL-6) by the TLR agonist-treated cells, whereas IRAK4 leads to the production of IFNα. Cytokine release is used as readout in this assay and represents a measure for the level of inhibition of the TLR/IRAK-4 pathway by the tested compound. It should be noted that in the context of the complete organism, other sources for these cytokines exist that are not dependent on the TLR/IRAK-4 pathway, such as e.g., macrophages (upon activation of the Fcγ receptor (Yan et al. 2012)) or T cells (upon activation of the T cell receptor (Brehm, Daniels, and Welsh 2005)).
Blood is collected from healthy volunteers into lithium heparin tubes by venipuncture, then gently inverted several times to prevent clotting and incubated for at least 15 min at 37° C. on a rocking mixer shaker. Then, 100 μL of blood is dispensed into polypropylene 96-well microplate and pre-incubated in duplicate with 0.3% DMSO or test compound at different concentrations (from 30 to 0.01 μM, 3-fold dilutions to get 0.3% DMSO at the final) for 15 min at 37° C. After this pre-incubation, blood is triggered with CL097 (2 μg/mL from 1 mg/mL solution in water; InvivoGen, tlr1-c97) for 3 h 30 min at 37° C. Microtubes are centrifuged at 5000×g for 10 min at 4° C. and approximately 40 μL of plasma are collected into a polystyrene 96-well plate. Plasma can be analyzed freshly, within 30 min after triggering, or frozen at −80° C. Finally, the quantification of IFNα and IFNα were performed in the plasma using AlphaLISA Kit for […] according to the manufacturer's instructions and read on the Ensight (PerkinElmer).
For each blood sample, the TNFα concentrations of the samples were determined from the fit. Data were then expressed as a percentage of inhibition (PIN) for each replicate using the formula:
With mean TNFα with CL097=mean TNFα concentration of replicate samples triggered with CL097; TNFαsample1=TNFα concentration of sample 1; mean TNFα with vehicle=mean TNFα concentration of replicate samples treated with vehicle.
Curve fitting for pIC50 determination were generated using mean PIN±sem. Graphs and pIC50 calculations were derived using Prism 5.03 software (GraphPad).

In another series the test system is Human Hepatocyte. The experiment in a line: Metabolic stability in human hepatocytes. The following applies: human cryopreserved hepatocytes, 1 μM. The format is in vitro ADME. As to the method: as §1, §2, §3, §4, §5, §6, §7, §8
Where [2] appears, read: Fasted State Simulated Gastric Fluid (FaSSGF), fassgf or other biorelevant, Fasted State Simulated Gastric Fluid, read-out: Tsol FaSSGF.
Setting [3] is: Fasted State Simulated Intestine Fluid (FaSSIF), fassif, Fasted State Simulated Intestine Fluid, read-out: Tsol FaSSIF.
The mark [4] stands for this setting: Fed State Simulated Intestine Fluid (FeSSIF), fessif, Fed State Simulated Intestine Fluid, read-out: Tsol FeSSIF.
Setting [5] is: Fasted State Simulated Intestine Fluid, 24 h, 37° C.

Structures are written as SMILES. ≈ marks a conversion by molar mass, not a printed value. Read-outs that look alike come from different tables or passages of the source. Where only a bound is given, the exact number is not on record here.

The IC50 is the point on the concentration scale where inhibition reaches its midpoint. A higher IC50 goes with lower potency. On to `COc1cc2nc(C3COCCO3)cn2cc1NC(=O)c1cccn(C2CC2)c1=O` (racemic) [Compound 1, 1-cyclopropyl-N-[2-(1,4-dioxan-2-yl)-7-methoxy-imidazo[1,2-a]pyridin-6-yl]-2-oxo-pyridine-3-carboxamide], for which the “Mouse Hepatocyte stability (Perc. remaining at 90 min)” value in the series with Mouse Hepatocyte turned out to be 103.95 Perc. The solubility thermodynamic at 24 h in “Thermodynamic solubility” (setting [2]) was more than 1000 µg/mL; in the series “Thermodynamic solubility” (setting [3]) it was 28.2 µg/mL (≈ 68.7 µM); in the series “Thermodynamic solubility” (setting [4]), more than 1000 µg/mL. In series [1], this compound had an IC50 of 0.1 to 500 nM. In the series with Human Hepatocyte, the “Human Hepatocyte stability (Perc. remaining at 90 min)” value stood at 101.5 Perc.

As for `COc1cc2nc(C3COCCO3)cn2cc1NC(=O)c1cccn(C2CC2)c1=O` (single isomer, unassigned) [Compound 7, 1-cyclopropyl-N-[2-(1,4-dioxan-2-yl)-7-methoxy-imidazo[1,2-a]pyridin-6-yl]-2-oxo-pyridine-3-carboxamide], the “Tsol FaSSGF” value in the series “Thermodynamic solubility” (Fasted State Simulated Gastric Fluid, 24 h, 37° C.) was 958 µg/mL. In addition, the “Tsol FaSSIF” value in “Thermodynamic solubility” (setting [5]) is 31.6 µg/mL. In the series “Thermodynamic solubility” (Fed State Simulated Intestine Fluid, 24 h, 37° C.), the “Tsol FeSSIF” value is 117 µg/mL.

On to `COc1cc2nc(C3COCCO3)cn2cc1NC(=O)c1cccn(C2CC2)c1=O` (single isomer, unassigned) [Compound 8, 1-cyclopropyl-N-[2-(1,4-dioxan-2-yl)-7-methoxy-imidazo[1,2-a]pyridin-6-yl]-2-oxo-pyridine-3-carboxamide], for which the solubility thermodynamic at 24 h in the series “Thermodynamic solubility” (setting [2]) is 1000 µg/mL (≈ 2440 µM); in “Thermodynamic solubility” (setting [4]), 208 µg/mL (≈ 507 µM). Also, in “Thermodynamic solubility” (setting [5]), the “Tsol FaSSIF” value is 67.4 µg/mL.

With `COc1cc2nc(C3CCOCC3)cn2cc1NC(=O)c1cccc(C(F)(F)F)n1` [Compound 2, N-(7-methoxy-2-tetrahydropyran-4-yl-imidazo[1,2-a]pyridin-6-yl)-6-(trifluoromethyl)pyridine-2-carboxamide], the solubility thermodynamic at 24 h in “Thermodynamic solubility” (setting [2]) is 1020 µg/mL (≈ 2430 µM); in “Thermodynamic solubility” (setting [3]), 19.3 µg/mL (≈ 45.9 µM).

Consider `COc1cc2nc(C3CCOCC3)cn2cc1NC(=O)c1cccn(C2CC2)c1=O` [Compound 3, (1-cyclopropyl-N-[7-methoxy-2-(oxan-4-yl)imidazo[1,2-a]pyridin-6-yl]-2-oxopyridine-3-carboxamide)], for which the solubility thermodynamic at 24 h is 947 µg/mL (≈ 2320 µM) in the series “Thermodynamic solubility” (setting [2]) and 1010 µg/mL (≈ 2480 µM) in “Thermodynamic solubility” (setting [3]).

Take `COc1cc2nc(C3COCCO3)cn2cc1NC(=O)c1cccn(C2CCC2)c1=O` (centres unmarked) [Compound 5, 1-cyclobutyl-N-[2-(1,4-dioxan-2-yl)-7-methoxy-imidazo[1,2-a]pyridin-6-yl]-2-oxo-pyridine-3-carboxamide]: the solubility thermodynamic at 24 h in “Thermodynamic solubility” (setting [3]) is 43.9 µg/mL (≈ 103 µM). This compound yielded an IC50 in series [1] of 1000 to 5000 nM.

Take `NC(=O)c1cc2nc(C3COCCO3)cn2cc1NC(=O)c1cccc(C(F)(F)F)n1` (centres unmarked) [Compound 6, 2-(1,4-dioxan-2-yl)-6-[[6-(trifluoromethyl)pyridine-2-carbonyl]amino]imidazo[1,2-a]pyridine-7-carboxamide]: in “Thermodynamic solubility” (setting [5]), the “Tsol FaSSIF” value is on record as 2.30, 2.30 μg/mL.

`CNC(=O)c1cc2nc(C3COCCO3)cn2cc1NC(=O)c1cccc(C(F)(F)F)n1` (centres unmarked) [Compound 9, 2-(1,4-dioxan-2-yl)-N-methyl-6-(6-(trifluoromethyl)picolinamido)imidazo[1,2-a]pyridine-7-carboxamide]: the “Mouse Hepatocyte stability (Perc. remaining at 90 min)” value with Mouse Hepatocyte is 73.3 Perc. Moreover, in “Thermodynamic solubility” (setting [3]), the solubility thermodynamic at 24 h is 6.42 µg/mL (≈ 14.3 µM). Further, in the series on Human Hepatocyte, the “Human Hepatocyte stability (Perc. remaining at 90 min)” value is listed as 92.1 Perc.

For `CC(F)(F)c1cccc(C(=O)Nc2cn3cc(C4COCCO4)nc3cc2C(N)=O)n1` (centres unmarked) [Compound 11, 6-(6-(1,1-difluoroethyl)picolinamido)-2-(1,4-dioxan-2-yl)imidazo[1,2-a]pyridine-7-carboxamide], the “Mouse Hepatocyte stability (Perc. remaining at 90 min)” value with Mouse Hepatocyte was determined as 80.6 Perc. Besides, the solubility thermodynamic at 24 h in “Thermodynamic solubility” (setting [2]) was 335 µg/mL (≈ 777 µM); in “Thermodynamic solubility” (setting [3]), 12.2 µg/mL (≈ 28.3 µM). The compound also had a concentration for half-maximal inhibition (IC50) in series [1] of 0.1 to 500 nM. Also, the “Human Hepatocyte stability (Perc. remaining at 90 min)” value in the series with Human Hepatocyte amounted to 99.15 Perc.

As to `COc1cc2nc(C3CCS(=O)(=O)CC3)cn2cc1NC(=O)c1cccn(C2CC2)c1=O` [Compound 23, 1-cyclopropyl-N-(2-(1,1-dioxidotetrahydro-2H-thiopyran-4-yl)-7-methoxyimidazo[1,2-a]pyridin-6-yl)-2-oxo-1,2-dihydropyridine-3-carboxamide], the solubility thermodynamic at 24 h in “Thermodynamic solubility” (setting [4]) is 270 µg/mL (≈ 591 µM). Further, in series [1], the IC50 fell in the range of 0.1 to 500 nM.
